Measurements published in the NIST ThermoML archive (doi:10.1021/acs.jced.7b01085).
± gives the expanded uncertainty stated by the source.

Tests used:
[1] = Molar enthalpy of transition or fusion; conditions: Crystal; DSC
[2] = Crystal; DSC

With `c1ccc2[nH]nnc2c1` [benzotriazole] the “Molar enthalpy of transition or fusion” value [1] was 15.2 ± 0.7 kJ/mol and the Triple point temperature [2] was 369.26 ± 1.2 K.
